Test system: Dkk1-LRP5-TCF-Luciferase
Test: Functional Dkk1-LRP5-TCF-Luciferase Assay in U2OS Cells
Conditions: for fold induction at 2 µM / fold induction at 20 µM / EC50: Homo sapiens, U2OS; for fold induction at 2 µM: read-out: B = TCF ACTIVITY/DMSO CONTROL Fold induction @ 2.0 uM, 2.0 uM compound; for fold induction at 20 µM: read-out: C = TCF ACTIVITY/DMSO CONTROL Fold induction @ 20.0 uM, 20.0 uM compound; for A = MAX FOLD Induction/DMSO CONTROL: maximum fold induction over DMSO control

| EC50 [µM] | A = MAX FOLD Induction/DMSO CONTROL [fold] | SMILES | fold induction at 2 µM | fold induction at 20 µM |
| --- | --- | --- | --- | --- |
| – | – | O=CNCC1CCN(c2nccc(-c3ccc4ccccc4c3)n2)C1 (stereo not drawn) [N-({1-[4-(2-naphthyl)pyrimidin-2-yl]pyrrolidin-3-yl}methyl)formamide] | 1.09 | 1.68 |
| – | – | CS(=O)(=O)NCC1CCN(c2nccc(-c3ccc4ccccc4c3)n2)C1 (stereo not drawn) [N-({1-[4-(2-naphthyl)pyrimidin-2-yl]pyrrolidin-3-yl}methyl)methanesulfonamide] | 0.88 | 1.63 |
| 19.4 | 1.720 | NC(=O)NCC1CCN(c2nccc(-c3ccc4ccccc4c3)n2)C1 (stereo not drawn) [N-({1-[4-(2-naphthyl)pyrimidin-2-yl]pyrrolidin-3-yl}methyl)urea] | 1.14 | 2.34 |
| – | – | Cc1ccc(S(=O)(=O)N2CC(CNc3nccc(-c4ccc5ccccc5c4)n3)C2)cc1 [N-({1-[(4-methylphenyl)sulfonyl]azetidin-3-yl}methyl)-4-(2-naphthyl)pyrimidin-2-amine] | 1.45 | 1.2 |
| – | – | Cc1ccc(S(=O)(=O)N2CCC(CNc3nccc(-c4ccc5ccccc5c4)n3)CC2)cc1 [N-({1-[(4-methylphenyl)sulfonyl]piperidin-4-yl}methyl)-4-(2-naphthyl)pyrimidin-2-amine] | 1.17 | 0.92 |
| 0.06 | 1.730 | CS(=O)(=O)N1CCC(Nc2nccc(-c3ccc4ccccc4c3)n2)CC1 [N-[1-(methylsulfonyl)piperidin-4-yl]-4-(2-naphthyl)pyrimidin-2-amine] | 2.24 | 1.54 |
| – | – | O=C(N1CCOCC1)N1CCC(Nc2nccc(-c3ccc4ccccc4c3)n2)CC1 [N-[1-(morpholin-4-ylcarbonyl)piperidin-4-yl]-4-(2-naphthyl)pyrimidin-2-amine] | 1.03 | 1.07 |
| 16.1 | 6.080 | c1ccc2cc(-c3ccnc(NC4CCCNCC4)n3)ccc2c1 (stereo not drawn) [N-[4-(2-naphthyl)pyrimidin-2-yl]azepan-4-amine] | 1.11 | 4.87 |
| – | – | CC(=O)N1CC(CNc2nccc(-c3ccc4ccccc4c3)n2)C1 [N-[(1-acetylazetidin-3-yl)methyl]-4-(2-naphthyl)pyrimidin-2-amine] | 1.8 | – |
| – | – | CC(=O)N1CCC(CNc2nccc(-c3ccc4ccccc4c3)n2)CC1 [N-[(1-acetylpiperidin-4-yl)methyl]-4-(2-naphthyl)pyrimidin-2-amine] | 1.02 | 1.33 |
| – | – | O=C(c1ccccc1)N1CC(CNc2nccc(-c3ccc4ccccc4c3)n2)C1 [N-[(1-benzoylazetidin-3-yl)methyl]-4-(2-naphthyl)pyrimidin-2-amine] | 1.5 | – |
| – | – | O=C(c1ccccc1)N1CCC(CNc2nccc(-c3ccc4ccccc4c3)n2)CC1 [N-[(1-benzoylpiperidin-4-yl)methyl]-4-(2-naphthyl)pyrimidin-2-amine] | 1.44 | 0.627 |
| – | – | c1ccc(CN2CCC(CNc3nccc(-c4ccc5ccccc5c4)n3)CC2)cc1 [N-[(1-benzylpiperidin-4-yl)methyl]-4-(2-naphthyl)pyrimidin-2-amine] | – | 1.49 |
| 3.94 | 3.450 | CCN1CCC(CNc2nccc(-c3ccc4ccccc4c3)n2)CC1 [N-[(1-ethylpiperidin-4-yl)methyl]-4-(2-naphthyl)pyrimidin-2-amine] | 1.5 | 0.908 |
| 3.55 | 3.380 | CS(=O)(=O)N1CC[C@@H](Nc2nccc(-c3ccc4ccccc4c3)n2)C1 [N-[(3R)-1-(methylsulfonyl)pyrrolidin-3-yl]-4-(2-naphthyl)pyrimidin-2-amine] | – | 3.46 |

— patent US20090054392A1, “NAPHTHYLPYRIMIDINE, NAPHTHYLPYRAZINE AND NAPHTHYLPYRIDAZINE ANALOGS AND THEIR USE AS AGONISTS OF THE WNT-BETA-CATENIN CELLULAR MESSAGING SYSTEM” (Wyeth, priority 2007, published 2009)
